A word on the fraction unbound: it is free concentration divided by total concentration. Broadly, the logP is a log measure of how a compound divides between an organic and an aqueous phase. The solubility is how much of the substance goes into solution per volume. Lower therefore signals little dissolved substance.

The results in this text go back to patent publication US8106031B2, “Hydrolytically-resistant boron-containing therapeutics and methods of use” (Anacor Pharmaceuticals, Inc., priority 2006, dated 2012).

Series [1] can be described thus: Plasma protein binding. The class given is in vitro ADME.
Series [2] can be described thus: LogP. The note with it: read-out: LogP. The class given is physicochemical. The source says:
(§1) Further discussion, and assays for testing log P, molecular weight and water solubility are described in U.S. patent application Ser. Nos. 11/357,687 and 11/505,591, which are incorporated herein by reference.

The nature of series [3]: Water solubility. The format is physicochemical.
From the text: as §1

Molecule `OB1OCc2cc(Cl)ccc21` [drawing 89] gave a fraction unbound in series [1] of 0.17. Besides, the logP in series [2] worked out at 2.3. Further, the solubility in series [3] was over 100 µg/mL.

As for `OB1OCc2cc(F)ccc21` [drawing 88], in series [1], the fraction unbound is 0.34. For the same molecule, the logP in series [2] is 1.9. The solubility in series [3] is over 100 µg/mL.
